According to US10023590B2, “Substituted pyridine compounds having herbicidal activity” (BASF SE, priority 2014, dated 2018):

Columns and labels:
Type in all cases: in vivo
Zea mays = assay: Greenhouse post-emergence herbicidal activity on crop ZEAMX (corn, maize); design: key: 0 = no damage/normal growth, 100 = no emergence or complete destruction
Source text: (§1) The culture containers used were plastic flowerpots containing loamy sand with approximately 3.0% of humus as the substrate. The seeds of the test plants were sown separately for each species.
(§2) For the post-emergence treatment, the test plants were first grown to a height of 3 to 15 cm, depending on the plant habit, and only then treated with the active ingredients which had been suspended or emulsified in water. For this purpose, the test plants were either sown directly and grown in the same containers, or they were first grown separately as seedlings and transplanted into the test containers a few days prior to treatment.
(§3) Depending on the species, the plants were kept at 10-25° C. or 20-35° C., respectively.
(§4) The test period extended over 2 to 4 weeks. During this time, the plants were tended, and their response to the individual treatments was evaluated.
(§5) Evaluation was carried out using a scale from 0 to 100. 100 means no emergence of the plants, or complete destruction of at least the aerial moieties, and 0 means no damage, or normal course of growth. A good herbicidal activity is given at values of at least 70 and a very good herbicidal activity is given at values of at least 85.

Chenopodium album = assay: Greenhouse post-emergence herbicidal activity, CHEAL
Source text: as §1, §2, §3, §4, §5

Echinocloa crus-galli = assay: Greenhouse post-emergence herbicidal activity, ECHCG; conditions: Echinochloa crus-galli, ECHCG
Source text: as §1, §2, §3, §4, §5

Amaranthus retroflexus = assay: Greenhouse post-emergence herbicidal activity, AMARE; conditions: AMARE
Source text: as §1, §2, §3, §4, §5

Oryza sativa = assay: Greenhouse post-emergence herbicidal activity on crop ORYSA (rice)
Source text: as §1, §2, §3, §4, §5

[1] = crop ZEAMX (corn, maize), application rate 0.031 kg/ha
[2] = crop ZEAMX (corn, maize), application rate 0.063 kg/ha
[3] = crop ZEAMX (corn, maize), application rate 0.125 kg/ha
[4] = crop ORYSA (rice), application rate 0.031 kg/ha
[5] = crop ORYSA (rice), application rate 0.063 kg/ha
[6] = crop ORYSA (rice), application rate 0.125 kg/ha

| SMILES | Herbicidal activity (Zea mays; [1]) | Herbicidal activity (Zea mays; [2]) | Herbicidal activity (Zea mays; [3]) | pest or weed control at 31 g/ha (Chenopodium album; application rate 0.031 kg/ha) | pest or weed control at 63 g/ha (Chenopodium album; application rate 0.063 kg/ha) | pest or weed control at 125 g/ha (Chenopodium album; application rate 0.125 kg/ha) | pest or weed control at 63 g/ha (Amaranthus retroflexus; application rate 0.063 kg/ha) | pest or weed control at 125 g/ha (Amaranthus retroflexus; application rate 0.125 kg/ha) | Herbicidal activity (Oryza sativa; [4]) | Herbicidal activity (Oryza sativa; [5]) | Herbicidal activity (Oryza sativa; [6]) | pest or weed control at 125 g/ha (Echinocloa crus-galli; application rate 0.125 kg/ha) | pest or weed control at 31 g/ha (Echinocloa crus-galli; application rate 0.031 kg/ha) | pest or weed control at 63 g/ha (Echinocloa crus-galli; application rate 0.063 kg/ha) | also measured |
| --- | --- | --- | --- | --- | --- | --- | --- | --- | --- | --- | --- | --- | --- | --- | --- |
| CS(=O)(=O)N(c1c(Cl)ccc(C2=C(O)c3ncccc3CS2(=O)=O)c1Cl)C1CC1 [I-24, N-cyclopropyl-N-[2,6-dichloro-3-(8-hydroxy-6,6-dioxo-5H-thiopyrano[4,3-b]pyridin-7-yl)phenyl]methanesulfonamide] | – | – | – | – | – | – | – | – | – | – | – | – | – | – | Herbicidal activity (Zea mays; ZEAMX (corn, crop), 0.031 kg/ha, scale 0 to 100): 0; Herbicidal activity (Zea mays; ZEAMX (corn, crop), 0.063 kg/ha, scale 0 to 100): 0; Herbicidal activity (Zea mays; ZEAMX (corn, crop), 0.125 kg/ha, scale 0 to 100): 15; Herbicidal activity (Zea mays; ZEAMX (corn, crop), 0.25 kg/ha, scale 0 to 100): 15; pest or weed control at 31 g/ha (Chenopodium album; 0.031 kg/ha, scale 0 to 100): 80%; pest or weed control at 63 g/ha (Chenopodium album; 0.063 kg/ha, scale 0 to 100): 85%; pest or weed control at 125 g/ha (Chenopodium album; 0.125 kg/ha, scale 0 to 100): 90%; pest or weed control at 250 g/ha (Chenopodium album; 0.25 kg/ha, scale 0 to 100): 98%; pest or weed control at 31 g/ha (Echinocloa crus-galli; 0.031 kg/ha, scale 0 to 100): 80%; pest or weed control at 63 g/ha (Echinocloa crus-galli; 0.063 kg/ha, scale 0 to 100): 85%; pest or weed control at 125 g/ha (Echinocloa crus-galli; 0.125 kg/ha, scale 0 to 100): 90%; pest or weed control at 250 g/ha (Echinocloa crus-galli; 0.25 kg/ha, scale 0 to 100): 95%; pest or weed control at 31 g/ha (Amaranthus retroflexus; 0.031 kg/ha, scale 0 to 100): 70%; pest or weed control at 63 g/ha (Amaranthus retroflexus; 0.063 kg/ha, scale 0 to 100): 75%; pest or weed control at 125 g/ha (Amaranthus retroflexus; 0.125 kg/ha, scale 0 to 100): 85%; pest or weed control at 250 g/ha (Amaranthus retroflexus; 0.25 kg/ha, scale 0 to 100): 90%; Herbicidal activity (Oryza sativa; ORYSA (rice, crop), 0.031 kg/ha, scale 0 to 100): 0; Herbicidal activity (Oryza sativa; ORYSA (rice, crop), 0.063 kg/ha, scale 0 to 100): 15; Herbicidal activity (Oryza sativa; ORYSA (rice, crop), 0.125 kg/ha, scale 0 to 100): 20 |
| CN(c1cccc(C2=C(O)c3ncccc3CS2(=O)=O)c1S(C)(=O)=O)S(C)(=O)=O [I-33, N-[3-(8-hydroxy-6,6-dioxo-5H-thiopyrano[4,3-b]pyridin-7-yl)-2-methylsulfonyl-phenyl]-N-methyl-methanesulfonamide] | 0 | 0 | 0 | 85% | 98% | 90% | 85% | 90% | 0 | 20 | 10 | – | – | – | – |
| CN(c1cccc(C2=C(O)c3ncccc3C(C)(C)S2(=O)=O)c1S(C)(=O)=O)S(C)(=O)=O [I-34, N-[3-(8-hydroxy-5,5-dimethyl-6,6-dioxo-thiopyrano[4,3-b]pyridin-7-yl)-2-methylsulfonyl-phenyl]-N-methyl-methanesulfonamide] | 0 | 0 | 15 | 95% | 98% | 100% | 95% | 98% | 0 | 0 | 0 | 70% | – | – | pest or weed control at 31 g/ha (Amaranthus retroflexus; application rate 0.031 kg/ha): 90% |
| CN(c1cccc(C2=C(O)c3ncccc3CS2(=O)=O)c1C(F)(F)F)S(C)(=O)=O [I-35, N-[3-(8-hydroxy-6,6-dioxo-5H-thiopyrano[4,3-b]pyridin-7-yl)-2-(trifluoromethyl)phenyl]-N-methyl-methanesulfonamide] | 0 | 0 | 0 | 95% | 100% | 100% | 75% | 100% | 0 | 15 | 25 | 90% | 80% | 90% | – |
| CN(c1c(Cl)ccc(C2=C(O)c3ncc(F)cc3CS2(=O)=O)c1Cl)S(C)(=O)=O [I-37, N-[2,6-dichloro-3-(3-fluoro-8-hydroxy-6,6-dioxo-5H-thiopyrano[4,3-b]pyridin-7-yl)phenyl]-N-methyl-methanesulfonamide] | 0 | 0 | – | 90% | 90% | 90% | – | – | 0 | 0 | 0 | 95% | 90% | 90% | – |
